Measured values as given in patent US4440786A, “Compounds with antiinflammatory and analgesic activity, process for the preparation thereof and pharmaceutical compositio ns therefrom” (Ausonia Farmaceutici s.r.l., priority 1981, dated 1984).
“Also recorded” adds a separate entry of the source. Read-outs that look alike come from different tables or passages of the source.

Legend:
[1] = Subplantar edema caused by carrageenan (antiinflammatory activity); assay type: in vivo; parameters: Volume of Paw in No. of Hours after the Treatment: 0 / Volume of Paw in No. of Hours after the Treatment: 1 / Volume of Paw in No. of Hours after the Treatment: 2 / Volume of Paw in No. of Hours after the Treatment: 3 / Volume of Paw in No. of Hours after the Treatment: 4 / Volume of Paw in No. of Hours after the Treatment: 5: dose or concentration left out as unconfirmed; conditions: rats, oral; for AREA % Inhibition vs. Control / AREA Absolute Value: paw volume 0-5 h, acetylsalicylic acid 250, ibuprofen 100, paracetamol 100, diflunisal 25, MR 713 25 mg/kg
Source text: The experiments have been carried out with rats and carrageenan has been used as the agent causing edema.
Subplantar Edema Caused by Carrageenan in Rats

[2] = Contorsions caused by phenylquinone (analgesic activity); assay type: in vivo; conditions: mice, oral; phenylquinone 30 min after; acetylsalicylic acid 250, ibuprofen 100, paracetamol 100, diflunisal 25, MR 713 25 mg/kg
Source text: The analgesic activity has been tested in mice using the contorsion test caused by phenylquinone. […] Phenylquinone has been administered thirty minutes after the substance under test and the results obtained are reported in Table II.
Contorsions Caused by Phenylquinone in Mice

[3] = Plasmatic levels half-life, oral; assay type: in vivo; conditions: rats, at equal dose
Procedure: The pharmacodynamic tests carried out in rats and administering MR 713 by the oral route in the doses of 25, 50, and 100 mg/kg, show a half-life time of plasmatic levels, which is possible to calculate in the dose of 25 mg/kg, of about eleven hours. […] The pharmacodynamic tests permit to administer one or at the most two daily doses of MR 713.

Acute toxicity, oral = assay type: in vivo; conditions: mice
Solubility = assay type: physicochemical
[4] = rats fasted 18 h, oral, 6 h, MR 713 25 mg/kg

Q: Which results are given for O=C(O)c1cc(-c2ccc(F)cc2F)ccc1O [Diflunisal, diflunisal]?
A: Average Size of Ulcer in mm (rat, in vivo, po, 25 mg/kg): 0.7 ± 0.4 mm; Volume of Paw in No. of Hours after the Treatment: 0 ([1]; 0 h): 21.2; Volume of Paw in No. of Hours after the Treatment: 1 ([1]; 1 h): 25.6; Volume of Paw in No. of Hours after the Treatment: 2 ([1]; 2 h): 29.7; Volume of Paw in No. of Hours after the Treatment: 3 ([1]; 3 h): 31.0; Volume of Paw in No. of Hours after the Treatment: 4 ([1]; 4 h): 33.4; Volume of Paw in No. of Hours after the Treatment: 5 ([1]; 5 h): 33.1; AREA % Inhibition vs. Control [1]: 30.0%; AREA Absolute Value [1]: 190.7; % Inhibition vs. Controls (contorsions) [2]: 99.1%; Average No. of Contorsions [2]: 0.2 ± 0.2; No. of Animals with Contorsions [2]: 1/9

Q: For CC(C)Cc1ccc(C(C)C(=O)O)cc1 (stereo not shown) [Ibuprofen, ibuprofen], which “Average Size of Ulcer in mm” value (rat, in vivo, po, 25 mg/kg) is on record?
A: 2.3 ± 0.7 mm

Q: And the “gastric lesions / gastric tolerability” value [4]?
A: cause gastric lesions

Q: What about the “AREA % Inhibition vs. Control” value [1] of the same molecule?
A: 40.0%

Q: What about the “AREA Absolute Value” [1] of the same molecule?
A: 163.7

Q: And the “% Inhibition vs. Controls (contorsions)” value [2]?
A: 99.1%

Q: And the “Average No. of Contorsions” value [2]?
A: 0.2 ± 0.1

Q: And the “No. of Animals with Contorsions” value [2]?
A: 2/10

Q: For O=C(O)COc1ccc(-c2ccc(F)cc2F)cc1 [MR 713, (2',4'-difluoro-4-biphenyl)oxyacetic acid], which “half-life time of plasmatic levels, compared with other drugs” value [3] is on record?
A: substantially superior to the action of diflunisal

Q: And the “Average Size of Ulcer in mm” value (rat, in vivo, po, 25 mg/kg)?
A: 0.3 ± 0.1 mm

Q: And the “gastric lesions / gastric tolerability” value (rat, in vivo, po, 25 mg/kg)?
A: causes even less gastric lesions as compared with drugs which are well-known to be tolerated at the gastric level, such as paracetamol and diflunisal

Q: And the “acute toxicity” value (Acute toxicity, oral)?
A: very low acute toxicity

Q: And the LD50 (Acute toxicity, oral; mouse, in vivo, body weight, read-out: DL50 (the source's name))?
A: 790 mg/kg

Q: And the “solubility in chlorinated hydrocarbons” value (Solubility; chlorinated hydrocarbons)?
A: insoluble

Q: And the “solubility in hot lower alcohols” value (Solubility; hot lower alcohols)?
A: soluble

Q: What about the solubility in water (Solubility; water) of the same molecule?
A: essentially insoluble

Q: What about the “antiinflammatory activity compared with reference drugs” value ([1]; MR 713 25 mg/kg, vs diflunisal same dose, paracetamol and ibuprofen four times larger dose, acetylsalicylic acid ten times larger dose, 25 mg/kg) of the same molecule?
A: essentially the same as diflunisal; also recorded: substantially superior to paracetamol even when the latter is used in doses four times larger; also recorded: lower than that of ibuprofen; also recorded: essentially equivalent to the activity of acetylsalicylic acid

Q: What about the “AREA % Inhibition vs. Control” value [1] of the same molecule?
A: 31.0%

Q: And the “AREA Absolute Value” [1]?
A: 186.4

Q: And the “% Inhibition vs. Controls (contorsions)” value [2]?
A: 54.0%

Q: And the “Average No. of Contorsions” value [2]?
A: 10.8 ± 2.8

Q: What about the “No. of Animals with Contorsions” value [2] of the same molecule?
A: 9/10

Q: With CC(=O)Oc1ccccc1C(=O)O [acetylsalicylic acid, acetyl salicylic acid] as the molecule, how does the “Average Size of Ulcer in mm” value (rat, in vivo, po, 25 mg/kg) read?
A: 3.7 ± 0.8 mm

Q: What about the “gastric lesions / gastric tolerability” value [4] of the same molecule?
A: cause gastric lesions

Q: What about the “AREA % Inhibition vs. Control” value [1] of the same molecule?
A: 33.0%

Q: And the “AREA Absolute Value” [1]?
A: 182.4

Q: And the “% Inhibition vs. Controls (contorsions)” value [2]?
A: 100%

Q: What about the “Average No. of Contorsions” value [2] of the same molecule?
A: 0

Q: And the “No. of Animals with Contorsions” value [2]?
A: 0/10

Q: With CC(=O)Nc1ccc(O)cc1 [Paracetamol, p-acetylaminophenol] as the molecule, how does the “Average Size of Ulcer in mm” value (rat, in vivo, po, 25 mg/kg) read?
A: 0.6 ± 0.4 mm

Q: What about the “AREA % Inhibition vs. Control” value [1] of the same molecule?
A: 10.0%

Q: And the “AREA Absolute Value” [1]?
A: 245.7

Q: And the “% Inhibition vs. Controls (contorsions)” value [2]?
A: 63.4%

Q: What about the “Average No. of Contorsions” value [2] of the same molecule?
A: 8.6 ± 3.3

Q: And the “No. of Animals with Contorsions” value [2]?
A: 5/10
